According to patent US20140128411A1, “FUNGICIDAL COMPOSITION AND METHOD FOR CONTROLLING PLANT DISEASES” (Ishihara Sangyo Kaisha, Ltd., priority 2011, published 2014):
Values joined by “and” are separate entries in the source; they are usually repeats but may differ in a detail not shown here. Equal entries are not always repeated.

Experiments:
Erysiphe graminis = assay: Test on preventive effect against wheat powdery mildew; format: in vivo, Erysiphe graminis on wheat (cultivar: Norin-61); parameters: key: control value = (1 − a/b)×100; a, b = sporulation area treated/untreated; details: single compound alone
Protocol: Wheat (cultivar: Norin-61) was cultivated in a plastic pot having a diameter of 7.5 cm, and when it reached 1.5-leaf stage, a chemical solution having each test compound adjusted to a prescribed concentration, was applied by a spray gun in an amount of 5 ml/seedling. After the chemical solution dried, conidia of Erysiphe graminis were dusted and inoculated and maintained in a constant temperature chamber at 20° C. From 6 to 8 days after the inoculation, the area of sporulation was investigated, and the control value was determined in accordance with the following formula, and the results are shown in Tables 1 to 7. The area of sporulation in the non-treated plot was determined in the same manner as for the treated plot except that water was applied by a spray gun instead of the chemical solution.
(§1) Control value=(1−a/b)×100
a: area of sporulation in the treated plot
b: area of sporulation in the non-treated plot
Based on the obtained control value, an expected value (control value) was calculated by the Colby's formula. The expected values by the Colby's formula are also shown in brackets ( ) in Tables 1 to 7.
When the experimental value is higher than the expected value, the fungicidal composition of the present invention has a synergistic effect against wheat powdery mildew.

Botrytis cinerea = assay: Test on preventive effect against kidney bean gray mold; format: in vivo, Botrytis cinerea on kidney bean (cultivar: Taishokintoki); details: single compound alone
Protocol: Kidney bean (cultivar: Taishokintoki) was cultivated in a plastic pot having a diameter of 12 cm, and when it reached 3 to 4-leaf stage, a chemical solution having each test compound adjusted to a prescribed concentration, was applied by a spray gun in an amount of 10 ml/seedling. After the chemical solution dried, a suspension of conidia of Botrytis cinerea was blotted on a paper disk having a diameter of 8 mm for implantation inoculation and maintained in a constant temperature chamber at 20° C. Upon expiration of 3 days from the inoculation, the lesion area was investigated, and the control value was determined in accordance with the following formula, and the results are shown in Table 8. The lesion area in the non-treated plot was determined in the same manner as for the treated plot except that water was applied by a spray gun instead of the chemical solution.
as §1
a: lesion area in the treated plot
b: lesion area in the non-treated plot
Based on the obtained control value, an expected value (control value) was calculated by the Colby's formula. The expected values by the Colby's formula are also shown in brackets ( ) in Table 8.
When the experimental value is higher than the expected value, the fungicidal composition of the present invention has a synergistic effect against kidney bean gray mold.

SMILES: COc1cc(C)c(C(=O)c2c(OC)ncc(Cl)c2C)c(OC)c1OC [component (a), 3-(2,3,4-trimethoxy-6-methylbenzoyl)-5-chloro-2-methoxy-4-methylpyridine]
- Control value (Erysiphe graminis; 0.25 ppm): 30
- Control value (Erysiphe graminis; 0.5 ppm, spray, area of sporulation 6 to 8 days after inoculation): 50 and 40
- Control value (Botrytis cinerea; 200 ppm): 0
- Control value (Botrytis cinerea; 400 ppm, spray, lesion area 3 days after inoculation): 0

SMILES: CCCCCCCCc1c(CC)nc2ncnn2c1N [ametoctradin]
- Control value (Erysiphe graminis; 200 ppm): 0
- Control value (Erysiphe graminis; 400 ppm): 15

SMILES: Cn1cc(C(=O)Nc2ccccc2C2CC2C2CC2)c(C(F)F)n1 (centres unmarked) [sedaxane]
- Control value (Erysiphe graminis; 6.3 ppm): 0
- Control value (Erysiphe graminis; 12.5 ppm): 30

SMILES: Cn1cc(C(=O)Nc2ccc(F)cc2-c2ccc(Cl)c(Cl)c2)c(C(F)F)n1 [bixafen]
- Control value (Erysiphe graminis; 250 ppm): 0
- Control value (Erysiphe graminis; 500 ppm): 50

SMILES: Cn1cc(C(=O)Nc2ccccc2-c2cc(F)c(F)c(F)c2)c(C(F)F)n1 [fluxapyroxad]
- Control value (Erysiphe graminis; 6.3 ppm): 30
- Control value (Erysiphe graminis; 50 ppm): 50

SMILES: O=C(NCCc1ncc(C(F)(F)F)cc1Cl)c1ccccc1C(F)(F)F [fluopyram]
- Control value (Erysiphe graminis; 16 ppm): 40
- Control value (Erysiphe graminis; 31 ppm): 70

SMILES: Cc1nn(C)c(F)c1C(=O)Nc1ccccc1C(C)CC(C)C (centres unmarked) [penflufen]
- Control value (Botrytis cinerea; 50 ppm): 40
- Control value (Botrytis cinerea; 100 ppm): 50

SMILES: C=CCSC(=O)n1c(N)c(-c2ccccc2C)c(=O)n1C(C)C [fenpyrazamine]
- Control value (Erysiphe graminis; 63 ppm): 0
- Control value (Erysiphe graminis; 250 ppm): 0

SMILES: CC(C)C1C2CCC1c1c(NC(=O)c3cn(C)nc3C(F)F)cccc12 (centres unmarked) [isopyrazam]
- Control value (Erysiphe graminis; 16 ppm): 50
- Control value (Erysiphe graminis; 31 ppm): 90
